Laboratory results: patent publication US20070212360A1, “Modulation of mitochondrial oxygen consumption for therapeutic purposes” (priority 2006, published 2007)

Legend:
[1] = system: primary human or immortalized mouse fibroblasts; test: Oxygen consumption of fibroblast suspensions (Clark electrode); format: cell-based
Procedure: FIG. 1. Hypoxia inhibits mitochondrial oxygen consumption. A: Oxygen concentration curves generated using a Clark electrode for fibroblast suspensions from cultures exposed to normoxia or hypoxia for 24 h. Arrows indicate addition of the mitochondrial uncoupler CCCP and cytochrome poison cyanide. The slope of the curve is a measure of the rate of oxygen consumption. B: Average oxygen consumption rates in normal human fibroblasts and immortalized murine fibroblasts cultured in normoxia or 0.5% O2 for 24 h. C: Fraction of total oxygen consumption due to mitochondrial versus non-mitochondrial consumption in wild-type murine fibroblasts. Mitochondrial consumption was determined using 1 ug/ml of the cell permeable complex 3 inhibitor Antimycin A. D: Change in oxygen consumption in RKO cells after exposure to the indicated time in 0.5% O2, and time to recovery in normoxia following 24 h hypoxia. For all graphs, the error bars represent the standard error of the mean.
Oxygen consumption measurements. […] Oxygen consumption was measured in a 0.5 ml volume using an Oxytherm electrode unit (Hansatech, Norfolk, UK). […]
HIF-1 downregulates mitochondrial oxygen consumption. Having identified several putative HIF-1 responsive gene products that had the potential to regulate mitochondrial function, we then directly measured mitochondrial oxygen consumption in cells exposed to long term hypoxia. […]

[2] = system: RKO and RKOShHIF1α 5×HRE-luciferase reporter tumors; test: Bioluminescent imaging of HRE-luciferase reporter tumors in vivo; parameters: species or system mouse; details: twelve hours after single dose 60 mg/kg tirapazamine ip
Procedure: FIG. 8. Increasing oxygen consumption by inhibition of PDK activity increases tumor hypoxia. (a) Luciferase activity of wildtype and HIF1α knockdown RKO cells stably transfected with a HIF1 responsive luciferase reporter gene. Cells were exposed to 0.5% O2 for 24 hours in triplicate. Luminescence is normalized to normoxic HIF wildtype cells. (b) Luciferase activity of wildtype RKO HIF1 reporter cells exposed to 0.5% O2 for 24 hours in the presence of increasing concentrations of echinomycin. Data are normalized to the increase in signal observed in the absence of drug. (c) Bioluminescent imaging in vivo. Images show a representative animal bearing an RKO reporter tumor on the left flank and an RKOShHIF1α reporter tumor on the right flank as a function of time after ip injection of 50 mg/kg DCA. […] (d) Quantification of in vivo bioluminescence. […] The data represent the mean of three independent experiments, each comprising 5 RKO and 5 RKOShHIF1α reporter tumors.
FIG. 14. Luciferase activity of hypoxia reporter tumors in response to tirapazamine. Mice bearing 500 mm^3 RKO HRE-luciferase tumors were imaged using an IVIS100 bioluminescent imaging system, and the signal from each tumor was quantified. […]
Bioluminescent imaging. […] After 10 min, bioluminescence was measured in a Xenogen IVIS100 imaging system (Xenogen). Data was quantified by measuring total photons/s from uniform regions of interest. […]

[3] = system: HIFwt and HIFko MEFs; test: Tirapazamine toxicity by colony formation (clonogenic viability); format: cell-based, mouse
Procedure: FIG. 6. HIF dependent decrease in oxygen consumption raises intracellular oxygen concentration, protects when oxygen is limiting, and decreases sensitivity to tirapazamine in vitro. A: Pimonidazole was used to determine the intracellular oxygen concentration of cells in culture. HIFwt and HIFko MEFs were grown at high density and exposed to 2% O2 or anoxia for 24 h in glass dishes. For the last 4 hours of treatment, cells were exposed to 60 μg/ml pimonidazole. Pimonidazole binding was quantitated by flow cytometry after binding of an FITC conjugated anti-pimo mAb. Results are representative of two independent experiments. B: HIF1α reduces oxygen consumption and protects cells when total oxygen is limited. HIFwt and HIFko cells were plated at high density and sealed in aluminum jigs at <0.02% oxygen. At the indicated times, cells were harvested and dead cells were quantitated by trypan blue exclusion. […] C. PDK1 is responsible for HIF-1's adaptive response when oxygen is limiting. A similar jig experiment was performed to measure survival in the parental RKO, the RKO ShRNAHIF1α and the RKOShPDK1 cells. Cell death by trypan blue uptake was measured 48 h after the jigs were sealed. D: HIF status alters sensitivity to TPZ in vitro. HIFwt and HIFko MEFs were grown at high density in glass dishes and exposed to 21%, 2%, and <0.01% O2 conditions for 18 hours in the presence of varying concentrations of Tirapazamine. After exposure, cells were harvested, and replated under normoxia to determine clonogenic viability. Survival is calculated relative to the plating efficiency of cells exposed to 0 μM TPZ for each oxygen concentration. Error bars represent the standard error of the mean. E: Cell density alters sensitivity to TPZ. HIFwt and HIFko MEFs were grown at varying cell densities in glass dishes and exposed to 2% O2 in the presence of 10 μM TPZ for 24 h. After the exposure, survival was determined as described in […].
Cell lines and cell culture. Primary human fibroblasts have been described previously (Denko et al., 2003; Kim et al., 1997) and RKO human colon carcinoma cells were obtained from the American Type Culture Collection (ATCC, Manassas, Va.). RCC4, RCC4/VHL, and RCC4/Y98H human renal cell carcinoma cell lines have also been described previously (Chan et al., 2005). Wildtype and HIF-1α knockout mouse embryo fibroblasts (MEFs) were a gift from Dr. R Johnson (University of California, San Diego). All cells were grown in vitro as monolayers in Dulbeco's Modified Eagle's Media (DMEM) supplemented with 10% fetal bovine serum (FBS). For treatment with moderate hypoxia, cell culture dishes were placed into an Invivo2 humidified hypoxia workstation (Ruskinn Technologies, Bridgend, UK) at the indicated oxygen concentrations. Severe hypoxia was generated in an anaerobic workstation with a palladium catalyst (Sheldon Co., Cornelius, Oreg.). Tirapazamine toxicity was measured in cells plated overnight at the indicated density in glass dishes. The next day, fresh media was added containing the indicated concentration of TPZ, and the cells placed in the indicated oxygen environment. 24 hours later, the cells were trypsinized, counted, and plated for colony formation in normoxia.
Because HIF-1 can help cells adapt to hypoxia and maintain some intracellular oxygen level, it may also protect tumor cells from killing by the hypoxic cytotoxin tirapazamine (TPZ). TPZ toxicity is very oxygen dependent, especially at oxygen levels between 1-4% (Koch, 1993). We therefore tested the relative sensitivity of the HIFwt and HIFko cells to TPZ killing in high density cultures (FIG. 6d). We exposed the cells to the indicated concentrations of drug and oxygen concentrations overnight. The cells were then harvested and replated to determine reproductive viability by colony formation. […] The lower oxygen level is significant enough to dramatically sensitize these cells to killing by TPZ.

[4] = system: experimental tumors; details: literature reference (28); cited from earlier work

Row | Structure (SMILES) | effect on total cellular oxygen consumption ([1]; fibroblast suspensions from normoxic and hypoxic (24 h) cultures, mitochondrial uncoupler) | effect on oxygen consumption in hypoxia treated cells ([1]; hypoxia treated cells) | reduction of luciferase signal of HRE-reporter tumors [2] [%] | cell-density effect on TPZ toxicity in HIFko cells ([3]; 2% O2, 10 μM TPZ, 24 h, HIFko) | cell-density effect on TPZ toxicity in HIFwt cells ([3]; 2% O2, 10 μM TPZ, 24 h, HIFwt, highest density cultures) | effect of increased cell density on TPZ toxicity ([3]; 2% O2, 10 μM TPZ, 24 h, varying cell densities) | sensitivity of HIF-null cells to the drug relative to wild type cells ([3]; 2% oxygen, high density cultures, overnight) | sensitivity to TPZ killing (colony formation), HIFwt vs HIFko ([3]; 21% oxygen, high density cultures, overnight) | sensitivity to TPZ killing (colony formation), HIFwt vs HIFko ([3]; anoxic conditions, high density cultures, overnight) | reduction of the hypoxic fraction of experimental tumors [4]
1 | N#CC(C#N)=NNc1cccc(Cl)c1 [CCCP, carbonyl cyanide 3-chloro phenylhydrazone] | stimulated | increase oxygen consumption |  |  |  |  |  |  |  | 
2 | Nc1n[n+]([O-])c2ccccc2[n+]1[O-] [tirapazamine] |  |  | 90 | much more pronounced | some increased toxicity | increased TPZ toxicity | significantly greater sensitivity | equally resistant | equally sensitive | greater than 10 fold
